Results reported in ChEMBL document CHEMBL1135959, “The discovery of SB-435495. A potent, orally active inhibitor of lipoprotein-associated phospholipase A(2) for evaluation in man” (Bioorg Med Chem Lett, 2002).
≈ marks a conversion by molar mass, not a printed value.

Legend:
[1] = Oral bioavailability in dog; format: ADME, organism-based, Canis lupus familiaris; details: in vivo, read-out: Bioavailabiility
[2] = Solubility in pure water at pH 4.7; format: physicochemical
[3] = Permeability of compound was evaluated in an artificial membrane permeability assay; format: ADME, cell membranes; details: PAMPA; read-out: Permeability (converted)
Cytochrome P450 1A2 = target: T1, Cytochrome P450 1A2 (Homo sapiens, UniProt P05177); assay: Inhibition of cytochrome P450 1A2; format: ADME
T1 sequence (P05177 whole entry): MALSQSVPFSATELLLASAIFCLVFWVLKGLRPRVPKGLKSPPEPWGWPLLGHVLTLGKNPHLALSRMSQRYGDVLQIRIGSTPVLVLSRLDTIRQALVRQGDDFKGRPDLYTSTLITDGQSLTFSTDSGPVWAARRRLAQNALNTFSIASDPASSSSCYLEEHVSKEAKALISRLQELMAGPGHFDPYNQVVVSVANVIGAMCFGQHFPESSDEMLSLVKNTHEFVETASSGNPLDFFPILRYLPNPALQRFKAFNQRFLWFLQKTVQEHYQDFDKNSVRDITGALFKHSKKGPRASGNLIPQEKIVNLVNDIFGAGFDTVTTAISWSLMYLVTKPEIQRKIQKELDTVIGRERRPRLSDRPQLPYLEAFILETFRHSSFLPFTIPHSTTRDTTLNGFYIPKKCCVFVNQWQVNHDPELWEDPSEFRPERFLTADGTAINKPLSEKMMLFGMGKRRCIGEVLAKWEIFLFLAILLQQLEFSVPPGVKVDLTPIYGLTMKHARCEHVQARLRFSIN

Cytochrome P450 2C19 = Cytochrome P450 2C19 (Homo sapiens, UniProt P33261); assay: Inhibition of cytochrome P450 2C19; format: ADME
Cytochrome P450 2C9 = Cytochrome P450 2C9 (Homo sapiens, UniProt P11712); assay: Inhibition of cytochrome P450 2C9; format: ADME
Cytochrome P450 2D6 = Cytochrome P450 2D6 (Homo sapiens, UniProt P10635); assay: Inhibition of cytochrome P450 2D6; format: ADME
Cytochrome P450 3A4 = Cytochrome P450 3A4 (Homo sapiens, UniProt P08684); assay: Inhibition of cytochrome P450 3A4; format: ADME
Homo sapiens [4] = species: Homo sapiens; assay: Concentration required to inhibit the production of lyso-PtdCho by the compound during the copper catalyzed oxidation of human LDL; format: functional
[5] = Oral bioavailability in rat; format: ADME, organism-based; details: in vivo
Homo sapiens [6] = species: Homo sapiens; assay: Concentration required to inhibit the subsequent monocyte chemotaxis by the compound during the copper catalyzed oxidation of human LDL; format: functional
[7] = target: T2, Platelet-activating factor acetylhydrolase (Homo sapiens, UniProt Q13093); assay: Inhibitory concentration against Lipoprotein-Associated Phospholipase A2 (Lp-PLA2) was estimated
T2 sequence (Q13093 whole entry): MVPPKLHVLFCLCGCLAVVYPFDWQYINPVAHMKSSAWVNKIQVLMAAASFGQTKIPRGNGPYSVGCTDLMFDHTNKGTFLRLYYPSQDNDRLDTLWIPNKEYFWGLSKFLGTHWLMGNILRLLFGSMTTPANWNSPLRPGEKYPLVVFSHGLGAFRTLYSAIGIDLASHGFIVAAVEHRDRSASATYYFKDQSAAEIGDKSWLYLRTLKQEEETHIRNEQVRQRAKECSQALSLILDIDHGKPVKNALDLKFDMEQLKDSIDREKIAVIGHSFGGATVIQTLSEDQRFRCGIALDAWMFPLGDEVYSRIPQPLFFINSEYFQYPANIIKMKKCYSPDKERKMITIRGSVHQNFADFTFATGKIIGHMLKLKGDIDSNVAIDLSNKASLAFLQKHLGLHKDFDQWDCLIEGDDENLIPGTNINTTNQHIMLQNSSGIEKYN

[8] = Acid dissociation constant was determined for the compound; format: ADME

Sequence of Cytochrome P450 3A4 (P08684 whole entry): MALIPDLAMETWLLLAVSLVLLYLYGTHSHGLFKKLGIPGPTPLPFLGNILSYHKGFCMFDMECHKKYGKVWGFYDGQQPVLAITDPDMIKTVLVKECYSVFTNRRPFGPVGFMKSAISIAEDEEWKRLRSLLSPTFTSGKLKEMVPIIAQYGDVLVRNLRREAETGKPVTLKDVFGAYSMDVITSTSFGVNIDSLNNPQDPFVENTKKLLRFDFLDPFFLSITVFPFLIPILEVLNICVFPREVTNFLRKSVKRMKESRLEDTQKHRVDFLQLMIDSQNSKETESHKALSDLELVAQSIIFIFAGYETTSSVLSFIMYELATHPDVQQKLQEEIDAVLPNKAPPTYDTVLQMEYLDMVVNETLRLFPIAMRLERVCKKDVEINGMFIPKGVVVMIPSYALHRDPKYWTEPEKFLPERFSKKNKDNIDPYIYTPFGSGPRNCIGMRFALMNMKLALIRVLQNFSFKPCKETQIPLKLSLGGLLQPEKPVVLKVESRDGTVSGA
Sequence of Cytochrome P450 2D6 (P10635 whole entry): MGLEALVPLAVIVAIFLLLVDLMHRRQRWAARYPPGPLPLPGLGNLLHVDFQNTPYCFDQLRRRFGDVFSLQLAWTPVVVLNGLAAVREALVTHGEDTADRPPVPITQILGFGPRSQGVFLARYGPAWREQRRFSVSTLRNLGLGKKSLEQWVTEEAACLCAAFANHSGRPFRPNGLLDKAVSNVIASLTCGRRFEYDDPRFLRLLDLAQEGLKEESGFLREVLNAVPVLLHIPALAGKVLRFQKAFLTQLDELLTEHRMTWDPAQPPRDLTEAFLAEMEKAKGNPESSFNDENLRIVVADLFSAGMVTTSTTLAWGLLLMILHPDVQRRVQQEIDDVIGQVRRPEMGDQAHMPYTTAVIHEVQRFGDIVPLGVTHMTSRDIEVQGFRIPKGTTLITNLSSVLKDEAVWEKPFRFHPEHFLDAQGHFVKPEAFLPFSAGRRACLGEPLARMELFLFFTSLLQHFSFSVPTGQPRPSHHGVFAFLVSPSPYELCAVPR
Sequence of Cytochrome P450 2C9 (P11712 whole entry): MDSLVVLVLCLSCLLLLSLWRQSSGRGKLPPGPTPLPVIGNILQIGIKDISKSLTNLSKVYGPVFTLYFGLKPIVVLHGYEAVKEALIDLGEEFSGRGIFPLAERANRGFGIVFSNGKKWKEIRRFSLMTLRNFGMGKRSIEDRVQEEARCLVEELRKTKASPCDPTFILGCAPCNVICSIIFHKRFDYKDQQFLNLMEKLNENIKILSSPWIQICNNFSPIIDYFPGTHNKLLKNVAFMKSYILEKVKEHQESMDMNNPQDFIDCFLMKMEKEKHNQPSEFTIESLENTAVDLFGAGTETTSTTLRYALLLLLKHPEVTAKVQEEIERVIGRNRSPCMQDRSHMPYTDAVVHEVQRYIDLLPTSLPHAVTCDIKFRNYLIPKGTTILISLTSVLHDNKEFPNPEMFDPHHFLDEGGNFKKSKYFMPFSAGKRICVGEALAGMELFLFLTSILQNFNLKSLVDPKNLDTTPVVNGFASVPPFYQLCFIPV
Sequence of Cytochrome P450 2C19 (P33261 whole entry): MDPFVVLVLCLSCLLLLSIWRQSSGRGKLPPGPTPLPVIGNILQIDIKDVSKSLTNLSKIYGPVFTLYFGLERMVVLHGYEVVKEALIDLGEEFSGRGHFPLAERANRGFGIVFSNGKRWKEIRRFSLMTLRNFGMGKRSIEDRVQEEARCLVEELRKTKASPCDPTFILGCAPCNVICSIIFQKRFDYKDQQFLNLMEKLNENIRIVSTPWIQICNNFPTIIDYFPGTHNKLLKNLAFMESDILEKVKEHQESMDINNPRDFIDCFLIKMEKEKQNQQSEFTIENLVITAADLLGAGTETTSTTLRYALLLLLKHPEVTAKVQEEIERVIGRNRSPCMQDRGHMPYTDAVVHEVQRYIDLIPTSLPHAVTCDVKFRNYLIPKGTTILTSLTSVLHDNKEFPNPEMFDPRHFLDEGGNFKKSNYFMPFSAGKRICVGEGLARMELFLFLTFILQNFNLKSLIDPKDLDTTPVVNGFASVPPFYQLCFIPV

| Compound | Papp [3] [×10⁻⁶ cm/s] | IC50 (Cytochrome P450 3A4) [µM] | IC50 [7] [µM] | also measured |
| --- | --- | --- | --- | --- |
| CCN(CC)CCN(Cc1ccc(-c2ccc(C(F)(F)F)cc2)cc1)C(=O)Cn1cc(Cc2cnn(C)c2)c(=O)nc1SCc1ccc(F)cc1 | 4.72 | 10 | – | bioavailability [1]: 24%; solubility [2]: 5000 µg/mL (≈ 6.94 mM); IC50 (Cytochrome P450 1A2): 100 µM; IC50 (Cytochrome P450 2C19): > 40 µM; IC50 (Cytochrome P450 2C9): 100 µM; IC50 (Cytochrome P450 2D6): 37 µM; IC50 (Homo sapiens [4]): 0.023 µM; bioavailability [5]: 13%; IC50 (Homo sapiens [6]): 0.01 µM |
| Cn1cc(Cc2cn(CC(=O)N(CCO)Cc3ccc(-c4ccc(Cl)cc4)cc3)c(SCc3ccc(F)cc3)nc2=O)cn1 | 0.556 | 19 | – | – |
| Cn1cc(Cc2cn(CC(=O)N(CCN3CCCCC3)Cc3ccc(-c4ccc(C(F)(F)F)cc4)cc3)c(SCc3ccc(F)cc3)nc2=O)cn1 | 18.9 | 10 | 0.00017 | – |
| COc1ncc(Cc2cn(CC(=O)N(CCN(C)C)Cc3ccc(-c4ccc(Cl)cc4)cc3)c(SCc3ccc(F)cc3)nc2=O)cn1 | – | – | 0.0002 | – |
| COc1ncc(Cc2cn(CC(=O)N(CC(=O)O)Cc3ccc(-c4ccc(Cl)cc4)cc3)c(SCc3ccc(F)cc3)nc2=O)cn1 | – | – | 0.001 | – |
| CCN(CC)CCCN(Cc1ccc(-c2ccc(Cl)cc2)cc1)C(=O)Cn1cc(Cc2cnn(C)c2)c(=O)nc1SCc1ccc(F)cc1 | < 0.278 | 2 | – | pKa [8]: 9 |
| CN1CCN(CCCN(Cc2ccc(-c3ccc(Cl)cc3)cc2)C(=O)Cn2cc(Cc3cnn(C)c3)c(=O)nc2SCc2ccc(F)cc2)CC1 | < 0.278 | 10 | – | – |
| Cn1cc(Cc2cn(CC(=O)N(CCN3CCCC3)Cc3ccc(-c4ccc(Cl)cc4)cc3)c(SCc3ccc(F)cc3)nc2=O)cn1 | 1.11 | 6 | – | – |
| CN(C)CCN(Cc1ccc(-c2ccc(Cl)cc2)cc1)C(=O)Cn1cc(Cc2cnn(C)c2)c(=O)nc1SCc1ccc(F)cc1 | 0.556 | 8 | – | – |
| COc1ncc(Cc2cn(CC(=O)N(CC(=O)N(C)C)Cc3ccc(-c4ccc(Cl)cc4)cc3)c(SCc3ccc(F)cc3)nc2=O)cn1 | – | < 0.5 | 0.0002 | – |
| CN(C)C(=O)CN(Cc1ccc(-c2ccc(Cl)cc2)cc1)C(=O)Cn1cc(Cc2cnn(C)c2)c(=O)nc1SCc1ccc(F)cc1 | – | > 0.5 | – | – |
| CCN(CC)CCN(Cc1ccc(-c2ccc(Cl)cc2)cc1)C(=O)Cn1cc(Cc2cnn(C)c2)c(=O)nc1SCc1ccc(F)cc1 | 8.06 | 5 | – | pKa [8]: 8.3 |
| Cn1cc(Cc2cn(CC(=O)N(CCN)Cc3ccc(-c4ccc(Cl)cc4)cc3)c(SCc3ccc(F)cc3)nc2=O)cn1 | 0.556 | 15 | – | – |
| CN(C)CCCN(Cc1ccc(-c2ccc(Cl)cc2)cc1)C(=O)Cn1cc(Cc2cnn(C)c2)c(=O)nc1SCc1ccc(F)cc1 | 0.278 | 17 | – | – |
| COc1ncc(Cc2cn(CC(=O)N(CCO)Cc3ccc(-c4ccc(Cl)cc4)cc3)c(SCc3ccc(F)cc3)nc2=O)cn1 | – | – | 0.0002 | – |
| CN(C)CCN(Cc1ccc(-c2ccc(C(F)(F)F)cc2)cc1)C(=O)Cn1cc(Cc2cnn(C)c2)c(=O)nc1SCc1ccc(F)cc1 | < 0.278 | 30 | – | – |
| Cn1cc(Cc2cn(CC(=O)N(CC(=O)N3CCOCC3)Cc3ccc(-c4ccc(C(F)(F)F)cc4)cc3)c(SCc3ccc(F)cc3)nc2=O)cn1 | – | – | 0.0001 | – |
| Cn1cc(Cc2cn(CC(=O)N(CC(=O)O)Cc3ccc(-c4ccc(C(F)(F)F)cc4)cc3)c(SCc3ccc(F)cc3)nc2=O)cn1 | < 0.278 | 31 | – | – |
